Values joined by “and” are separate entries in the source; they are usually repeats but may differ in a detail not shown here. Equal entries are not always repeated. Structures can show the parent of a compound that is named as a salt.
Each compound was assayed on SARS-CoV-2 (assay: Antiviral activity against SARS-CoV-2 (USA-WA1/2020 strain) measured by imaging in Vero cells at MOI 0.08 after 48 hrs (reported as hit score from 0-1 for on-disease vs off-disease activity: scores >0.6 considered hits)). Settings: not given.
Format: functional, Chlorocebus sabaeus

Compound | Hit score
OC[C@H]1NC[C@H](O)[C@@H](O)[C@H]1O | 0.1704
CC(C)CN(C[C@@H](O)[C@H](Cc1ccccc1)NC(=O)O[C@H]1CO[C@H]2OCC[C@H]21)S(=O)(=O)c1ccc(N)cc1 | 0.153
NC(=O)c1nc(F)cnc1O | 0.1243
N[C@@H](CCN[C@@H](CCN1CC[C@H]1C(=O)O)C(=O)O)C(=O)O | 0.1086
CCC(CC)COC(=O)[C@H](C)N[P@](=O)(OC[C@H]1O[C@@](C#N)(c2ccc3c(N)ncnn23)[C@H](O)[C@@H]1O)Oc1ccccc1 | 0.5934
O=S(=O)(c1cccc2c(Cl)cccc12)N1CCCNCC1 | 0.1073
CC(C)(C)NC(=O)[C@@H]1CN(Cc2cccnc2)CCN1C[C@@H](O)C[C@@H](Cc1ccccc1)C(=O)N[C@H]1c2ccccc2C[C@H]1O.O | 0.2525
CCOC(=O)[C@H]1O[C@@H]1C(=O)N[C@@H](CC(C)C)C(=O)NCCC(C)C [ALOXISTATIN] | 0.4403
CN(C)C(=O)COC(=O)Cc1ccc(OC(=O)c2ccc(NC(=N)N)cc2)cc1 [CAMOSTAT] | 0.2137
CCN(CC)CCCC(C)Nc1ccnc2cc(Cl)ccc12 (configuration not stated) [CHLOROQUINE] | 0.6704
CC(C)c1nc(CN(C)C(=O)N[C@@H](CCN2CCOCC2)C(=O)N[C@H](CC[C@H](Cc2ccccc2)NC(=O)OCc2cncs2)Cc2ccccc2)cs1 [COBICISTAT] | 0.2397
COC(=O)/C=C/C(=O)OC [DIMETHYL FUMARATE] | 0.1078
N#C[C@@]1(c2ccc3c(N)ncnn23)O[C@H](CO)[C@@H](O)[C@H]1O [GS-441524] | 1
O=C(CCCN1CCC(O)(c2ccc(Cl)cc2)CC1)c1ccc(F)cc1 [HALOPERIDOL] | 0.07542
CCN(CCO)CCCC(C)Nc1ccnc2cc(Cl)ccc12.O=S(=O)(O)O (configuration not stated) [HYDROXYCHLOROQUINE SULFATE] | 0.5553
CC[C@H](Nc1ncnc2[nH]cnc12)c1nc2cccc(F)c2c(=O)n1-c1ccccc1 [IDELALISIB] | -0.08519

Compound | Hit score
CC(C)Cn1cnc2c(N)nc3ccccc3c21 [IMIQUIMOD] | 0.3174
COc1ccc2c(c1)c(CC(=O)O)c(C)n2C(=O)c1ccc(Cl)cc1 [INDOMETHACIN] | 0.1024
Cc1cccc(C)c1OCC(=O)N[C@@H](Cc1ccccc1)[C@@H](O)C[C@H](Cc1ccccc1)NC(=O)[C@H](C(C)C)N1CCCNC1=O [LOPINAVIR] | 0.1843
C[C@H]1C[C@@H]2[C@H]([C@@H](O)C[C@@]3(C)[C@H]2CC[C@]3(O)C(=O)COC(=O)CCC(=O)[O-])[C@@]2(C)C=CC(=O)C=C12.[Na+] [METHYLPREDNISOLONE SODIUM SUCCINATE] | 0.2294
CCC(CC)O[C@@H]1C=C(C(=O)O)C[C@H](N)[C@H]1NC(C)=O [OSELTAMIVIR CARBOXYLATE] | 0.1922
C1=N/C2=N/c3ccc(OCCN4CCCC4)c(c3)COC/C=C/COCc3cccc(c3)C(=C1)N2 [PACRITINIB] | 0.2418
Nc1nc(O)c2ncn(CCC(CO)CO)c2n1 [PENCICLOVIR] | 0.1283
OC[C@H]1O[C@@H](Oc2cc(O)cc(/C=C/c3ccc(O)cc3)c2)[C@H](O)[C@@H](O)[C@@H]1O [PICEID] | 0.06165
C=C[C@H]1CN2CC[C@H]1C[C@H]2[C@H](OC(=O)OCC)c1ccnc2ccc(OC)cc12 [QUININE ETHYLCARBONATE] | 0.1489
C=C[C@H]1CN2CC[C@H]1C[C@H]2[C@H](O)c1ccnc2ccc(OC)cc12 [QUININE] | 0.2113
NC(=O)c1ncn([C@@H]2O[C@H](CO)[C@@H](O)[C@H]2O)n1 [RIBAVIRIN] | 0.1047
CC(C)c1nc(CN(C)C(=O)N[C@H](C(=O)N[C@@H](Cc2ccccc2)C[C@H](O)[C@H](Cc2ccccc2)NC(=O)OCc2cncs2)C(C)C)cs1 [RITONAVIR] | 0.1477
CC[C@H]1OC(=O)[C@@](C)(F)C(=O)[C@H](C)[C@@H](O[C@@H]2O[C@H](C)C[C@H](N(C)C)[C@H]2O)[C@](C)(OC)C[C@@H](C)C(=O)[C@H](C)[C@H]2N(CCCCn3cc(-c4cccc(N)c4)nn3)C(=O)O[C@]12C [SOLITHROMYCIN] | 0.6032
CC(C)OC(=O)OCOP(=O)(CO[C@H](C)Cn1cnc2c(N)ncnc21)OCOC(=O)OC(C)C.O=C(O)/C=C/C(=O)O [TENOFOVIR DISOPROXIL FUMARATE] | 0.1962
CC1=CC(=O)C(C(C)C)=CC1=O [THYMOQUINONE] | 0.2773
CCOC(=O)c1c(CSc2ccccc2)n(C)c2cc(Br)c(O)c(CN(C)C)c12 [UMIFENOVIR] | 0.1334

The compounds below were run on SARS-CoV-2 (assay: Antiviral activity against SARS-CoV-2 (USA-WA1/2020 strain) measured by imaging in HRCE cells at MOI 0.4 after 96 hrs (reported as hit score from 0-1 for on-disease vs off-disease activity: scores >0.6 considered hits)). Settings: Homo sapiens.
Format: functional

Compound | Hit score
Eplivanserin hemifumarate | -0.0126
FLUPENTIXOL | 0.12
GADODIAMIDE | 0.193
MONOCTANOIN | -0.0148
OXALIPLATIN | 0.0878
SPIRAMYCIN | 0.139 and 0.136
THIMEROSAL | -0.0445
hemomex-s | 0.064
perchlozone | 0.0874
stetaderm | 0.101
